In patent publication US20210195900A1, “FUNGICIDAL MIXTURES FOR SOYBEAN DISEASES” (priority 2018, published 2021):

What was measured:
[1] = system: Fusarium virguliforme (SDS); assay: Soybean seed treatment field trial, SDS score at stage R6; assay type: in vivo; conditions: 9 = no disease, control 6.1
Experimental: (§1) Soybean seeds treated with penthiopyrad, fluopyram, a combination thereof, at indicated application rates, along with appropriate controls were grown in multiple field locations under a variety of pest pressures including sudden death syndrome (SDS).
Level of tolerance to Fusarium virguliforme (SDS) in soybean varieties based on SDS score was measured in multiple locations across multiple years. SDS score was determined at or during the soybean developmental stage R6.
Scale for assigning tolerance to SDS scores:
Scale 9=clean, no disease
Scale 8=Up to 10% of plants showing mild symptoms (yellow, chlorotic spots)
Scale 7=Up to 20% plants showing mild symptoms
Scale 6=up to 30% plants showing medium symptoms (necrotic spots develop in the chlorotic areas; considered the lowest ‘acceptable’ score)
Scale 5=40% or more of plants showing medium symptoms
Scale 4=50% or more plants showing medium to heavy symptoms
3, 2, or 1=1/3, 2/3, or complete leaf drop, respectively.
(§2) For those evaluations shown herein, the Treatment value is greater than or less than CONTROL, and statistically significant at (P-value <0.10).

[2] = system: soybeans; assay: Soybean seed treatment field trial, grain yield (multi-year, multi-location); assay type: in vivo; conditions: control 60.4
Experimental: as §1, §2

| SMILES | SDS Score (1-9) ([1]; penthiopyrad 0.25 mg ai/seed) | Multi-year, Multi-loc Yield ([2]; penthiopyrad 0.25 mg ai/seed) [bu/acre] | SDS Score (1-9) ([1]; fluopyram 0.075 mg ai/seed) | SDS Score (1-9) ([1]; fluopyram 0.15 mg ai/seed) | Multi-year, Multi-loc Yield ([2]; fluopyram 0.075 mg ai/seed) [bu/acre] | Multi-year, Multi-loc Yield ([2]; fluopyram 0.15 mg ai/seed) [bu/acre] |
| --- | --- | --- | --- | --- | --- | --- |
| CC(C)CC(C)c1sccc1NC(=O)c1cn(C)nc1C(F)(F)F (stereo not drawn) [Penthiopyrad, N-[2-(1,3-dimethylbutyl)-3-thienyl]-1-methyl-3-(trifluoromethyl)-1H-pyrazole-4-carboxamide] | 6.7 | 62.6 |  |  |  |  |
| O=C(NCCc1ncc(C(F)(F)F)cc1Cl)c1ccccc1C(F)(F)F [Fluopyram, N-{2-[3-Chloro-5-(trifluoromethyl)-2-pyridinyl]ethyl}-2-(trifluoromethyl)benzamide] |  |  | 6.8 | 7.2 | 62.2 | 62.5 |
